assay: in vitro; details: human, hela cells, % viability

Row | Structure (SMILES) | viability at 28.5 h, 10 µM [%]
1 | Cc1cc(C)c(CNC(=O)N(C)C(C)c2ccncn2)cn1 (stereo not shown) [CBK307192] | 93.4
2 | COc1ccc2c(c1)cc(C(=O)NCc1cncn1CC(C)C)n2C [CBK307193] | 89.3
3 | COC(=O)c1ccc(NC(=O)N2CCCCC2CCn2ccnc2)cc1 (stereo not shown) [CBK307195] | 86.8
4 | COc1ccc2c(c1)cc(C(=O)N(C)CCCn1nc(C)cc1C)n2C [CBK307196] | 81.4
5 | CC(NC(=O)N(C)Cc1ccc2ccccc2n1)c1nncn1C(C)C (stereo not shown) [CBK307197] | 92.9
6 | CSc1nc(C(=O)NC2CCCN(c3ncccn3)C2)cs1 (stereo not shown) [CBK307198] | 98.7
7 | CN(C)c1ccc(-c2nc(C(F)(F)F)nn2C)cn1 [CBK307202] | 87.1
8 | CN1CCN(c2cnn(CCCOc3ccccc3)c(=O)c2)CC1 [CBK307203] | 100
9 | COc1cccc(CN2CCCC(NC(=O)c3cn4ccsc4n3)C2)c1 (stereo not shown) [CBK307204] | 81.1
10 | Cn1nc2n(c1=O)CC(C(=O)NCCN1CCCc3ccccc31)CC2 (stereo not shown) [CBK307206] | 93.5
11 | CCCc1nnc2sc(C3CCC(=O)N(CC(C)C)C3)nn12 (stereo not shown) [CBK307207] | 95.6
12 | COc1cccc2ncn(CCCc3nc(C)c(C)s3)c(=O)c12 [CBK307208] | 95.2
13 | CCCCSc1nc(N)cc(N2CCCN(C(=O)C3CCCO3)CC2)n1 (stereo not shown) [CBK307209] | 86.8
14 | Cn1ccnc1C(NC(=O)N1CCOc2ccc(Cl)cc2C1)C1CC1 (stereo not shown) [CBK307212] | 91
15 | CCCCC(c1cccnc1)N(C)C(=O)c1cc(CC)[nH]c(=O)c1 (stereo not shown) [CBK307216] | 107
16 | CCn1c(CC2CCN(C(=O)CCN3CCCCO3)CC2)nn(C)c1=O [CBK307217] | 95.4
17 | CN(CCN1CCCCC1=O)c1nccc(CCC(F)(F)F)n1 [CBK307218] | 106
18 | CC(=O)COc1cc(OCC(C)=O)c2c3c(c(=O)oc2c1)CCC3 [CBK307219] | 85.1
19 | COc1ccc(CN2CCOCC2CC(=O)O)cc1Cn1cncn1 (stereo not shown) [CBK307220] | 92.7

Row | Structure (SMILES) | viability at 28.5 h, 10 µM [%]
20 | CCc1noc(C)c1C(=O)N1CC[C@@H](CNC(=O)N2CCCC2)[C@H](O)C1 [CBK307222] | 88.3
21 | CCN1CC2(CCCN(Cc3cncn3C3CCCCC3)C2)CCC1=O (stereo not shown) [CBK307223] | 98.1
22 | CCn1cc(CN(Cc2cccnc2)Cc2ccccc2OC)cn1 [CBK307224] | 84.2
23 | O=C(N[C@@H]1COCC[C@@H]1OCC1CC1)c1cccc2c1NCCC2 [CBK307227] | 102
24 | Cc1ccc2nc(CNC(=O)CN(C)C3CCNCC3)cn2c1 [CBK307228] | 96.6
25 | CCCNC(=O)NC1CC(C)(C)Cc2nc(N3CCOCC3)ncc21 (stereo not shown) [CBK307232] | 85.7
26 | COc1ccccc1C(=O)Nc1sc2c(c1C#N)CC(C)(C)NC2(C)C [CBK307233] | 99.9
27 | Cc1ccc(F)cc1C(=O)NCC1CCN(c2cnn(C)c(=O)c2)C1 (stereo not shown) [CBK307235] | 92.2
28 | COc1ccc(Cl)cc1CN(C)C(=O)c1cnn2cc(CCO)cnc12 [CBK307236] | 97.7
29 | O=C(c1nc2ccccn2c1CN1CCCC(O)C1)N1CCOCC1 (stereo not shown) [CBK307237] | 88.4
30 | Cc1cc(=O)cc(C(=O)NC2CCN(c3ncccc3C#N)CC2)o1 [CBK307240] | 86.2
31 | CCOc1ccc(-c2ccnc(N3CCC(N(C)C)C3)n2)cc1C(=O)O (stereo not shown) [CBK307241] | 95
32 | Cc1nc(N2CCCCC2)ncc1C(=O)NCc1nonc1C [CBK307243] | 87.7
33 | CCOC(=O)c1cn(CCSCC)cc(Oc2ccccc2)c1=O [CBK307244] | 115
34 | CCCc1nc(C(=O)N2Cc3cnn(Cc4ccc(F)cc4)c3C2)cs1 [CBK307249] | 86
35 | CCN1CC2(CCC1=O)CCN(Cc1cccc(C(C)N(C)C)c1)CC2 (stereo not shown) [CBK307250] | 116
36 | COc1nc2ccn(CC(O)CO)c(=O)c2cc1C#N (stereo not shown) [CBK307251] | 97.1
37 | CCCn1nccc1S(=O)(=O)NCCN1CCCCC1CO (stereo not shown) [CBK307259] | 82

— article PMC12040169 (PLOS Biology, 2025)
